Assay results reported in patent US8865705B2, “Benzimidazole respiratory syncytial virus inhibitors” (Janssen R&D Ireland, priority 2010, dated 2014).
Where two headings read alike, the source gives them in different places.

Tests used:
rgRSV224 virus = assay: microbe, parasite or virus in culture; format: cell-based, respiratory syncytial virus (RSV); conditions: read-out: WT activity EC50
Description: Black 96-well clear-bottom microtiter plates (Corning, Amsterdam, The Netherlands) were filled in duplicate using a customized robot system with serial 4-fold dilutions of compound in a final volume of 50 μl culture medium [RPMI medium without phenol red, 10% FBS, 0.04% gentamycin (50 mg/mL) and 0.5% DMSO]. Then, 100 μl of a HeLa cell suspension (5×10^4 cells/mL) in culture medium was added to each well followed by the addition of 50 μl rgRSV224 (MOI=0.02) virus in culture medium using a multidrop dispenser (Thermo Scientific, Erembodegem, Belgium). rgRSV224 virus is an engineered virus that includes an additional GFP gene (Hallak et al, 2000) and was in-licensed from the NIH (Bethesda, Md., USA). Medium, virus- and mock-infected controls were included in each test. Cells were incubated at 37° C. in a 5% CO2 atmosphere. Three days post-virus exposure, viral replication was quantified by measuring GFP expression in the cells by a MSM laser microscope (Tibotec, Beerse, Belgium). […] In parallel, compounds were incubated for three days in a set of white 96-well microtitier plates (Corning) and the cytotoxicity of compounds in HeLa cells was determined by measuring the ATP content of the cells using the ATPlite kit (PerkinElmer, Zaventem, Belgium) according to the manufacturer's instructions.

[1] = Cytotoxicity in HeLa cells by ATP content (ATPlite kit); format: cell-based; conditions: human; Table 1; HeLa cells, three days, ATP content; read-out: Tox CC50
Description: (§1) Black 96-well clear-bottom microtiter plates (Corning, Amsterdam, The Netherlands) were filled in duplicate using a customized robot system with serial 4-fold dilutions of compound in a final volume of 50 μl culture medium [RPMI medium without phenol red, 10% FBS, 0.04% gentamycin (50 mg/mL) and 0.5% DMSO]. Then, 100 μl of a HeLa cell suspension (5×10^4 cells/mL) in culture medium was added to each well followed by the addition of 50 μl rgRSV224 (MOI=0.02) virus in culture medium using a multidrop dispenser (Thermo Scientific, Erembodegem, Belgium). rgRSV224 virus is an engineered virus that includes an additional GFP gene (Hallak et al, 2000) and was in-licensed from the NIH (Bethesda, Md., USA). Medium, virus- and mock-infected controls were included in each test. Cells were incubated at 37° C. in a 5% CO2 atmosphere. Three days post-virus exposure, viral replication was quantified by measuring GFP expression in the cells by a MSM laser microscope (Tibotec, Beerse, Belgium). The EC50 was defined as the 50% inhibitory concentration for GFP expression. In parallel, compounds were incubated for three days in a set of white 96-well microtitier plates (Corning) and the cytotoxicity of compounds in HeLa cells was determined by measuring the ATP content of the cells using the ATPlite kit (PerkinElmer, Zaventem, Belgium) according to the manufacturer's instructions. The CC50 was defined as the 50% concentration for cytotoxicity.

HeLa cells = assay: as above; format: cell-based
Description: as §1

[2] = Table 1, rgRSV224 in HeLa cells, GFP expression three days post-virus exposure
[3] = Table 1, HeLa cells, three days, ATP content, read-out: Tox CC50

Compound	EC50 (rgRSV224 virus; human respiratory syncytial virus, HeLa, 72 h) [nM]	CC50 at 3 days [1] [nM]	EC50 (rgRSV224 virus; [2]) [nM]	CC50 (HeLa cells) [nM]	CC50 (HeLa cells; [3]) [nM]
CS(=O)(=O)CCCn1c(Cn2c(=O)n(C3CC3)c3ccncc32)nc2cc(Br)ccc21 [P2, 3-({5-Bromo-1-[3-(methylsulfonyl)propyl]-1H-benzimidazol-2-yl}methyl)-1-cyclopropyl-1,3-dihydro-2H-imidazo[4,5-c]pyridin-2-one]	0.034	> 9840	–	–	–
CS(=O)(=O)CCCn1c(Cn2c(=O)n(C3CC3)c3ccccc32)nc2cc(Br)ccc21 [P7]	–	–	< 0.15	> 9840	–
O=c1n(Cc2nc3cc(Br)ccc3n2CCCCCl)c2cnccc2n1C1CC1 [P8]	–	–	< 0.205	–	> 9840
CS(=O)(=O)NCCCn1c(Cn2c(=O)n(C3CC3)c3ccncc32)nc2cc(Br)ccc21 [P9]	–	–	0.21	> 101000	–
CS(=O)(=O)CCCn1c(Cn2c(=O)n(C3CC3)c3ccc(F)cc32)nc2cc(Cl)ccc21 [P10]	–	–	0.23	> 9840	–
O=c1n(Cc2nc3cc(Cl)ccc3n2CCCCO)c2cc(F)ccc2n1C1CC1 [P11]	–	–	0.253	> 9840	–
O=c1n(Cc2nc3cc(Cl)ccc3n2CCCCO)c2ccccc2n1C1CC1 [P12]	–	–	0.307	> 9840	–
O=c1n(Cc2nc3cc(Cl)ccc3n2CCCCO)c2cnccc2n1C1CC1 [P13]	–	–	0.454	> 9840	–
O=c1n(Cc2nc3cc(Br)ccc3n2CCCCO)c2cnccc2n1C1CC1 [P14]	–	–	0.523	> 98400	–
CC(C)CCn1c(Cn2c(=O)n(C3CC3)c3ccncc32)nc2cc(Cl)ccc21 [P15]	–	–	< 0.62	> 98400	–
O=c1n(Cc2nc3cc(Br)ccc3n2CCCCO)c2cc(F)ccc2n1C1CC1 [P16]	–	–	0.744	> 9840	–
CC(C)CCn1c(Cn2c(=O)n(C3CC3)c3ccncc32)nc2cc(Br)ccc21 [P17]	–	–	0.808	> 49200	–
CC(=O)OCCCCn1c(Cn2c(=O)n(C3CC3)c3ccncc32)nc2cc(Br)ccc21 [P18]	–	–	1.07	–	> 101000
CC(C)(C)C(=O)OCCCCn1c(Cn2c(=O)n(C3CC3)c3ccccc32)nc2cc(Cl)ccc21 [P19]	–	–	2.59	> 9840	–
CC(C)(C)C(=O)OCCCCn1c(Cn2c(=O)n(C3CC3)c3ccc(F)cc32)nc2cc(Cl)ccc21 [P20]	–	–	4.09	> 9840	–
CN(C)CCCn1c(Cn2c(=O)n(C3CC3)c3ccncc32)nc2cc(Br)ccc21 [P21]	–	–	4.12	> 98400	–
CC(=O)OCCCCn1c(Cn2c(=O)n(C3CC3)c3ccc(F)cc32)nc2cc(Br)ccc21 [P22]	–	–	< 0.81	–	> 9840
O=c1n(Cc2nc3cc(Br)ccc3n2CCCCF)c2cc(F)ccc2n1C1CC1 [P23]	–	–	< 1.6	–	> 9840
CS(=O)(=O)CCCn1c(Cn2c(=O)n(C3CC3)c3ccccc32)nc2cc(Cl)ccc21 [P24]	–	–	< 0.15	> 9840	–
O=c1n(Cc2nc3cc(Cl)ccc3n2CCCCF)c2ccccc2n1C1CC1 [P25]	–	–	< 0.15	–	> 9840
N#CCCCn1c(Cn2c(=O)n(C3CC3)c3ccncc32)nc2cc(Cl)ccc21 [P26]	–	–	< 0.15	–	> 9840
N#CCCCn1c(Cn2c(=O)n(C3CC3)c3ccncc32)nc2cc(Br)ccc21 [P27]	–	–	< 0.15	–	> 9840
